Measured values published in paper PMC9747717, “A novel small molecule inhibitor of human Drp1” (Scientific Reports, 2022).

Experiments:
[1] = system: human iPSC-derived cardiomyocytes; assay: Doxorubicin-induced cardiomyocyte injury, LDH release; type: cell-based; settings: DRP1i27 50 µM in combination with doxorubicin 5 µM, 2 days
Procedure: Cardiomyocytes were derived from human induced pluripotent stem cells (iPSCs, CERA007c6 cell line) as previously described with modifications[26],[27]. Briefly, human iPSCs were seeded onto Matrigel (Corning) coated plates at a density of 1.25 × 10^5 cells/cm^2 in TeSR-E8 medium supplemented with 10 μM Y−27632 (Abcam). After 48 h (cells ~ 90% confluent) (day 0), medium was replaced with RPMI-1640 basal medium (Thermo Fisher Scientific) containing B-27 without insulin supplement (Thermo Fisher Scientific), growth factor reduced Matrigel (1:60 dilution) and 10 μM CHIR99021 (Cayman Chemical). At day 1, medium was replaced with RPMI 1640 basal medium containing B-27 without insulin supplement. […]
Enriched cardiomyocytes were replated onto Matrigel-coated 48-well plates at a cell density of 5 × 10^4 cells/cm^2 for 2 days. […] LDH levels in the conditioned media were assessed using a colorimetric CyQUANT LDH Cytotoxicity Assay Kit (Thermo Fisher Scientific) according to manufacturer’s protocol. […] Following the incubation at room temperature for 30 min in the dark, 50 μL of Stop Solution was added and absorbance was measured at 490 nm and 680 nm on a microplate spectrophotometer (Bio-Rad). All readings were then corrected for the background signal from the culture media and expressed as fold change.

[2] = system: Human foreskin fibroblasts (HFF-1); assay: Hydrogen peroxide-induced oxidative stress, cell death; type: cell-based; settings: 50 µM compound, 3 mM hydrogen peroxide, compared to DMSO control
Procedure: Human foreskin fibroblasts (HFF-1, ATCC, VA, USA) were treated with 3 mM hydrogen peroxide plus vehicle control (0.1% DMSO), Mdivi-1 (50 µM) or individual compound at 50 µM. After 2.5–3 h of incubation at 37 °C in a humidified 5% CO2 incubator, cells were stained with 1 μg/mL propidium iodide and 3 μg/mL Hoechst 33258 to determine the percentage of dead cells. Images were captured at 20 × objective with an inverted microscope (Olympus IX71). The number of dead cells (propodium iodide positive) was counted and expressed as a percentage over total number of cells (Hoechst 33258 positive). At least 100 cells were counted per group for each independent experiment.

[3] = system: Human foreskin fibroblasts; assay: Mitochondrial morphology analysis in human fibroblasts; type: cell-based
Procedure: (§1) Human foreskin fibroblasts and Drp1 wildtype and KO MEF (kindly provided by Professor Hiromi Sesaki, Johns Hopkins University, USA)[28],[29] were transduced with pAS2.EYFP.puro lentiviruses (RNAiCore, Academia Sinica, Taiwan) carrying the mitochondrial-targeted EGFP sequence as described in Kalkhoran et al.[30]. Cells were then treated with DRP1i27 (5, 10 or 50 µM) or 0.1% DMSO vehicle control for 24 h.
(§2) Mitochondrial morphology in HL-1 cells were visualised by immunostaining of mitochondrial Hsp60 antibody (Abcam, MA, USA). Images were acquired using Olympus BX60 fluorescence microscope at 600 × magnification and analysed using Fiji imaging software (ImageJ v1.53c). Cells were categorised into predominantly (> 50%) having fused or fragmented mitochondria. At least 100 cells were analysed for each treatment group.

Drp1 wild type MEFs = assay: Mitochondrial morphology analysis in Drp1 wild type MEF; type: cell-based, mouse; settings: statistical significance at 10 and 50 µM
Procedure: as §1, §2

HL-1 cells = assay: Simulated ischaemia-reperfusion injury, cell death; type: cell-based, Murine; settings: 50 µM during simulated ischaemia-reperfusion; DMSO 29.55 ± 5.45%
Procedure: HL-1 cells were plated in 24-well plate pre-coated with 5 μg/mL human fibronectin (Merck Millipore, MA, USA) in 0.02% porcine gelatin solution (Sigma-Aldrich, MA, USA). Cells were maintained in Claycomb media (Sigma-Aldrich) supplemented with 0.1 mM (±)-norepinephrine (+)-bitartrate salt (Sigma-Aldrich), 2 mM GlutaMAX (Thermo Fisher Scientific, MA, USA), 100 μg/mL penicillin/streptomycin (Thermo Fisher Scientific) and 10% non-heat inactivated foetal bovine serum (FBS) (Bovogen Biologicals, Victoria, Australia). The simulated ischaemia–reperfusion injury was performed as described in Rosdah et al.[25]. To simulate ischaemia, cells were cultured in ischaemic buffer (25 mM NaHEPES, 1 mM KH2PO4, 10 mM NaHCO3, 74 mM NaCl, 1.2 mM MgCl2.6H2O, 16 mM KCl, 1.2 mM CaCl2, 10 mM 2-deoxy-d-glucose) and hypoxia (< 0.1% O2) was induced in an airtight GENBox anaerobic chamber containing a Genbox Anaer generator sachet (BioMérieux, Marcy l’Etoile, France) at 37 °C. […] Cell death was determined by staining with 1 μg/mL propidium iodide and 3 μg/mL Hoechst 33258. The number of dead cells (propidium iodide positive) was counted and expressed as a percentage over total number of cells (Hoechst 33258 positive). At least 100 cells were counted per group for each independent experiment.

SMILES: Cc1nc[nH]c1CN1C[C@@H]2CC[C@H](C1)N(Cc1ccc(-c3cc[nH]n3)o1)C2 [DRP1i27]
- LDH release [1]: 3.13 ± 0.16 fold change
- cell death induced by hydrogen peroxide [2]: significant reduction
- percentage of cells with elongated mitochondria ([3]; basal condition, compared to DMSO control): significant increase
- cellular networks of mitochondria ([3]; human fibroblasts, 5, 10 or 50 µM, 24 h): increase cellular networks of mitochondria
- cellular networks of mitochondria (Drp1 wild type MEFs): dose-dependent response
- cell death (HL-1 cells): 15.17 ± 3.67%
